# Results taken from US8871681B2, “Herbicidal compositions comprising 4-amino-3-chloro-5-fluoro-6-(4-chloro-2-fluoro-3-methoxyphenyl) pyridine-2-carboxylic acid or a derivative thereof and certain sulfonylureas” (Dow AgroSciences LLC, priority 2012, dated 2014).
# Legend:
# [1] = test system: GALAP (Galium aparine, cleavers); assay: Post-emergence foliar-applied weed control in cereal crops, greenhouse (Example III); type: in vivo, Galium aparine (L.); details: Table 51, after 20-22 days, 10 gai/ha alone
# Experimental: Seeds of the desired test plant species were planted in Sun Gro MetroMix® 306 planting mixture, which typically has a pH of 6.0 to 6.8 and an organic matter content of about 30 percent, in plastic pots with a surface area of 103.2 square centimeters (cm^2). When required to ensure good germination and healthy plants, a fungicide treatment and/or other chemical or physical treatment was applied. The plants were grown for 7-36 days in a greenhouse with an approximate 14 hour photoperiod which was maintained at about 18° C. during the day and 17° C. during the night. Nutrients and water were added on a regular basis and supplemental lighting was provided with overhead metal halide 1000-Watt lamps as necessary. […]
# Measured aliquot of benzyl ester of 4-amino-3-chloro-5-fluoro-6-(4-chloro-2-fluoro-3-methoxy-phenyl)pyridine-2-carboxylic acid (Compound A) was placed in 25 milliliter (mL) glass vials and diluted in a volume of 1.25% (v/v) Agri-dex crop oil concentrated to obtain stock solutions. […]
# The treated plants and control plants were placed in a greenhouse as described above and watered by sub-irrigation to prevent wash-off of the test compounds. After 20-22 days, the condition of the test plants as compared with that of the control plants was determined visually and scored on a scale of 0 to 100 percent where 0 corresponds to no injury and 100 corresponds to complete kill. […]
# [2] = test system: LAMPU (Lamium purpureum, purple deadnettle); assay: as above; type: in vivo, Lamium purpureum (L.); details: Table 51, after 20-22 days, 10 gai/ha alone
# Experimental: (§1) Seeds of the desired test plant species were planted in Sun Gro MetroMix® 306 planting mixture, which typically has a pH of 6.0 to 6.8 and an organic matter content of about 30 percent, in plastic pots with a surface area of 103.2 square centimeters (cm^2). When required to ensure good germination and healthy plants, a fungicide treatment and/or other chemical or physical treatment was applied. The plants were grown for 7-36 days in a greenhouse with an approximate 14 hour photoperiod which was maintained at about 18° C. during the day and 17° C. during the night. Nutrients and water were added on a regular basis and supplemental lighting was provided with overhead metal halide 1000-Watt lamps as necessary. The plants were employed for testing when they reached the second or third true leaf stage.
# (§2) Treatments consisted of the benzyl ester of 4-amino-3-chloro-5-fluoro-6-(4-chloro-2-fluoro-3-methoxy-phenyl)pyridine-2-carboxylic acid (Compound A), formulated as an SC (suspension concentrate), and a second cereal herbicide alone and in combination.
# (§3) Measured aliquot of benzyl ester of 4-amino-3-chloro-5-fluoro-6-(4-chloro-2-fluoro-3-methoxy-phenyl)pyridine-2-carboxylic acid (Compound A) was placed in 25 milliliter (mL) glass vials and diluted in a volume of 1.25% (v/v) Agri-dex crop oil concentrated to obtain stock solutions. Compound requirements are based upon a 12 mL application volume at a rate of 187 liters per hectare (L/ha). Spray solutions of the second cereal herbicide and experimental compound mixtures were prepared by adding the stock solutions to the appropriate amount of dilution solution to form 12 mL spray solution with active ingredients in two- and three-way combinations. Formulated compounds were applied to the plant material with an overhead Mandel track sprayer equipped with an 8002E nozzle calibrated to deliver 187 L/ha over an application area of 0.503 square meters (m^2) at a spray height of 18 inches (46 cm) above average plant canopy. Control plants were sprayed in the same manner with the solvent blank.
# (§4) The treated plants and control plants were placed in a greenhouse as described above and watered by sub-irrigation to prevent wash-off of the test compounds. After 20-22 days, the condition of the test plants as compared with that of the control plants was determined visually and scored on a scale of 0 to 100 percent where 0 corresponds to no injury and 100 corresponds to complete kill.
# (§5) Colby's equation was used to determine the herbicidal effects expected from the mixtures (Colby, S. R. 1967. Calculation of the synergistic and antagonistic response of herbicide combinations. Weeds 15:20-22.).
# (§6) The following equation was used to calculate the expected activity of mixtures containing two active ingredients, A and B: Expected=A+B−(A×B/100)
# [3] = test system: VERPE (Veronica persica, bird's-eye speedwell); assay: as above; type: in vivo, Veronica persica Poir.; details: Table 51, after 20-22 days, 10 gai/ha alone
# Experimental: as §1, §2, §3, §4, §5, §6
# [4] = test system: IPOHE (Ipomoea hederacea, ivyleaf morningglory); assay: Postemergence foliar-applied weed control, direct seeded rice, greenhouse (Example I); type: in vivo, Ipomoea hederacea Jacq.; details: 22 DAA
# Description: Seeds or nutlets of the desired test plant species were planted in a soil matrix prepared by mixing a loam or sandy loam soil (e.g., 28.6 percent silt, 18.8 percent clay, and 52.6 percent sand, with a pH of about 5.8 and an organic matter content of about 1.8 percent) and calcareous grit in an 80 to 20 ratio. The soil matrix was contained in plastic pots with a volume of 1 quart and a surface area of 83.6 square centimeters (cm^2). When required to ensure good germination and healthy plants, a fungicide treatment and/or other chemical or physical treatment was applied. The plants were grown for 8-22 days in a greenhouse with an approximate 14 h photoperiod which was maintained at about 29° C. during the day and 26° C. during the night. Nutrients (Peters Excel® 15-5-15 5-Ca 2-Mg and iron chelate) were applied in the irrigation solution as needed and water was added on a regular basis. Supplemental lighting was provided with overhead metal halide 1000-Watt lamps as necessary. The plants were employed for testing when they reached the first through fourth true leaf stage.
# (§7) Treatments consisted of the acid or esters of 4-amino-3-chloro-5-fluoro-6-(4-chloro-2-fluoro-3-methoxy-phenyl)pyridine-2-carboxylic acid (Compound A), each formulated as an SC, and various herbicidal components alone and in combination. Forms of compound A were applied on an acid equivalent basis.
# Other herbicidal components were applied on an active ingredient basis and included acetolactate synthase (ALS)-inhibiting herbicides (sulfonylurea chemical class) azimsulfuron formulated as Gulliver®, bensulfuron-methyl formulated as Londax® 60DF, cyclosulfamuron (technical material), ethoxysulfuron formulated as Sunrice® 15 WDG, flazasulfuron formulated as Katana®, flucetosulfuron formulated as Sukedachi® 1KG G, foramsulfuron formulated as Option®, imazosulfuron formulated as Brazzos® WG, iodosulfuron-methyl-sodium formulated as Hussar®, metsulfuron-methyl formulated as Lorate®, nicosulfuron formulated as Accent®, orthosulfamuron formulated as Strada® WG, primisulfuron-methyl (technical material), propyrisulfuron formulated as Zeta One®, rimsulfuron formulated as Matrix® WG, sulfometuron-methyl formulated as Oust®, and trifloxysulfuron-sodium formulated as Monument® 75WG.
# (§8) Treatment requirements were calculated based upon the rates being tested, the concentration of active ingredient or acid equivalent in the formulation, and a 12 mL application volume at a rate of 187 L/ha.
# (§9) For treatments comprised of formulated compounds, measured amounts of compounds were placed individually in 25 mL glass vials and diluted in a volume of 1.25% (v/v) Agri-Dex® crop oil concentrated to obtain 12× stock solutions. […] Application solutions were prepared by adding an appropriate amount of each stock solution (e.g., 1 mL) and diluted to the appropriate final concentrations with the addition of 10 mL of an aqueous mixture of 1.25% (v/v) crop oil concentrate so that the final spray solutions contained 1.25+/−0.05% (v/v) Agrcrop oil concentrate.
# For treatments comprised of formulated and technical compounds, weighed amounts of the technical materials were placed individually in 25 mL glass vials and dissolved in a volume of 97:3 v/v acetone/DMSO to obtain 12× stock solutions, and measured amounts of the formulated compounds were placed individually in 25 mL glass vials and diluted in a volume of 1.25% (v/v) crop oil concentrate to obtain 12× stock solutions. […] Application solutions were prepared by adding an appropriate amount of each stock solution (e.g., 1 mL) and diluted to the appropriate final concentrations with the addition of an appropriate amount of an aqueous mixture of 1.5% (v/v) crop oil concentrate so that the final spray solutions contained 1.25% (v/v) crop oil concentrate. […]
# [5] = test system: LEFCH (Leptochloa chinensis, Chinese sprangletop); assay: as above; type: in vivo, Leptochloa chinensis (L.) Nees; details: 22 DAA
# Procedure, shortened: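 Greenhouse-grown plants (14 h photoperiod, 29/26 °C day/night) at first to fourth true leaf stage sprayed overhead at 187 L/ha with Compound A (acid equivalent basis) alone or mixed with sulfonylurea ALS inhibitors (active ingredient basis). Final spray contained 1.25% v/v crop oil concentrate; controls received solvent blank.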
# [6] = test system: SETFA (Setaria faberi, giant foxtail); assay: Pre-emergence soil-applied weed control, greenhouse (Example V); type: in vivo, Setaria faberi Herrm.; details: Table 59 (pre-emergence), 25 gai/ha alone
# Description: Seeds or nutlets of the desired test plant species were planted in a soil matrix prepared by mixing a loam soil (32 percent silt, 23 percent clay, and 45 percent sand, with a pH of about 6.5 and an organic matter content of about 1.9 percent) and calcareous grit in an 80 to 20 ratio. The soil matrix was contained in plastic pots with a volume of 1 quart and a surface area of 83.6 square centimeters (cm^2).
# as §7, with “benzyl ester” for “acid or esters”, “(compound A)” for “(Compound A), each”, “SC (suspension concentrate)” for “SC,”
# Other herbicidal components were applied on an acid equivalent or active ingredient basis and included the acetolactate synthase (ALS)-inhibiting herbicide, flazasulfuron, formulated as Katana®.
# as §8
# as §9, with “oil concentrate (COC)” for “oil concentrated”, “(v/v) COC” for “(v/v) crop oil concentrate”, “contained 1.25%” for “contained 1.25+/−0.05%”, “(v/v) COC. […]” for “(v/v) Agrcrop oil concentrate.”
# The treated and control pots were placed in a greenhouse and top watered as needed. […] After approximately 4 weeks, the condition of the test plants as compared with that of the untreated plants was determined visually and scored on a scale of 0 to 100 percent where 0 corresponds to no injury or growth inhibition and 100 corresponds to complete kill. […]
Structure (SMILES),Weed Control GALAP Obs [1] [%],Weed Control LAMPU Obs [2] [%],Weed Control VERPE Obs [3] [%],Visual Weed Control Obs ([4]; 50 gai/ha) [%],Visual Weed Control (%) Obs ([4]; 100 gai/ha) [%],Visual Weed Control Obs ([4]; 100 gai/ha) [%],Visual Weed Control Obs ([5]; 25 gai/ha) [%],Visual Weed Control Obs ([5]; 50 gai/ha) [%],Visual Weed Control (%) - 27 DAA SETFA Obs [6] [%]
COc1cc(OC)nc(NC(=O)NS(=O)(=O)N(C)S(C)(=O)=O)n1 [Amidosulfuron],48,0,0,,,,,,
"COc1cc(OC)nc(NC(=O)NS(=O)(=O)c2ncccc2C(F)(F)F)n1 [Flazasulfuron, N-[[(4,6-dimethoxy-2-pyrimidinyl)amino]carbonyl]-3-(trifluoromethyl)-2-pyridinesulfonamide, reference compound]",,,,50,50,50,0,10,62
